Data reported in US20220142995A1, “DUAL ATM AND DNA-PK INHIBITORS FOR USE IN ANTI-TUMOR THERAPY” (XRAD Therapeutics, Inc., priority 2019, published 2022).

Tested on: ATM and DNA-PK kinases
Assay: Immunoblot of radiation-induced phosphorylation of ATM, DNA-PKcs and KAP1 in MCF7 cells
Format: cell-based, human
Conditions: MCF7 cells, 20, 100, 500, 1000 nM, 30 min pre-treatment, 10 Gy, harvested 1 h later
Method: Cell Culture. The MCF-7 human breast carcinoma cell line and HCT116 p53 wild-type and HCT116 p53−/− cell lines were obtained from ATCC. […]
Immunoblotting. […] One hour after IR, cells were lysed in RIPA buffer ([…], pH 8.0, 150 mM NaCl, 0.1% SDS, 0.5% sodium deoxycholate, 1% IGEPAL® CA-630 (Sigma, 18896) for 20 min at 4° C. in the presence of protease and phosphatase inhibitor cocktails (Roche, #04693159001 & #04906837001). Cell lysates were centrifuged at 13,200 g for 10 min at 4° C. and supernatants were analyzed for protein content using BCA assay (Pierce™ BCA Protein Assay Kit, cat #23227, ThermoFisher Waltham, Mass. 02451) and equal amounts of protein/lane were used for subsequent immunoblot analyses. Proteins were denatured by adding NuPAGE LSD Sample Buffer [4×] […]

SMILES: CC(C)NCCOc1ncc(-c2cc3c4c(cnc3cc2F)N(C)C(=O)C42CCC2)cc1NS(C)(=O)=O [Compound 569, N-(5-(7′-Fluoro-3′-methyl-2′-oxo-2′,3′-dihydrospiro[cyclobutane-1,1′-pyrrolo[2,3-c]quinolin]-8′-yl)-2-(2-(isopropylamino)ethoxy)pyridin-3-yl)methanesulfonamide]
- inhibition of radiation-induced phosphorylation of DNA-PKcs Ser2056, ATM Ser1981 and KAP1 ser824: potent dose-dependent inhibition
